Assay results reported in article PMC6628648, “Enabling microbial syringol conversion through structure-guided protein engineering” (Proceedings of the National Academy of Sciences of the …, 2019).

Tests used:
[1] = tested on: Pseudomonas putida KT2440 strain AM156 expressing WT GcoAB; test: In vivo syringol conversion in shake flasks, 1H NMR of culture medium; format: cell-based; conditions: 20 mM glucose, 1 mM syringol
Procedure: (§1) A standard for 2-pyrone 6-carboxylate was not available; however, we did verify the presence of 2-pyrone 6-carboxylate using LC-MS-MS (SI Appendix, Fig. S15). While small amounts of pyrogallol, 3MC, and 2-pyrone 6-carboxylate were also observed with the WT GcoAB (AM156), nearly 60% of the original syringol remained after 6 h.
(§2) Strains used for shake flask experiments were grown overnight in LB media and resuspended the next day in M9 minimal media with 20 mM glucose, as described in SI Appendix. Cells were grown until they reached an OD600 of approximately 1, at which point syringol was added at a final concentration of 1 mM. ^1H NMR spectroscopy was used to analyze syringol consumption.
(§3) 572 nm was recorded by a Varioskan Lux microplate reader (Thermo Scientific). The absorbance was compared to a standard curve with 0-100 μM H2O2 to quantify the amount of peroxide produced in the reactions.
(§4) Purified protein was buffer exchanged into 10 mM HEPES pH 7.5 and concentrated to an A280 value of 12, as measured on a NanoDrop 2000 spectrophotometer (Thermo Fisher). Crystals of GcoA were grown with 2.4 M sodium malonate and 200 mM substrate, dissolved in 40% DMSO where necessary. Crystals were cryocooled directly in liquid N2 without further addition of cryoprotectants. […]
(§5) Strains evaluated in shake flask experiments were initially grown overnight in LB media with appropriate antibiotics from glycerol stocks and resuspended the following day in M9 minimal media (6.78 g/L Na2HPO4, 3 g/L KH2PO4, 0.5 g/L NaCl, 1 g/L NH4Cl, 2 mM MgSO4, 100 µM CaCl2, and 40 µM FeSO4 . 7H2O) supplemented with 20 mM glucose (Sigma-Aldrich) and […] kanamycin.
(§6) Cells were grown until they reached an OD600 of 1, at which point syringol (Sigma-Aldrich) was added to a final concentration of 1 mM. Syringol concentrations were quantified using any 1H NMR, and spectra were collected using a Bruker Avance III HD 400 MHz Spectrometer and analyzed using Bruker TopSpin3.7 software. For identification of unknown compounds, samples were analyzed via LC-MS-MS using the Acquity UPLC system (Waters Inc.). […]

[2] = tested on: Pseudomonas putida KT2440 strain AM155 lacking GcoAB; test: as above; format: cell-based; conditions: AM155 (does not express GcoA), 1 mM syringol
Procedure: as §1, §2, §3, §4, §5, §6

COc1cccc(OC)c1O [syringol, 2,6-dimethoxyphenol]
original syringol remaining after 6 h [1]: ~60%
syringol conversion after 6 h [2]: no conversion
